Data reported in paper PMC4572361, “Connecting proteins with drug-like compounds: Open source drug discovery workflows with BindingDB and KNIME” (Database: The Journal of Biological Databases and Curation, 2015).
Like-named read-outs stand apart in the source and are kept apart here.

Target: T1, phospholipase A2
T1 construct: gene PLA2G1B; not described in the main text; reagent of the PubChem AID 588400 phospholipase counterscreen (possibly the PLA2 reporter enzyme of an ATG4B assay)
Experiment: phospholipase inhibition assay (as PubChem AID […])
Assay type: biochemical, Homo sapiens

Row | IC50 (read-out: no significant inhibition at concentrations up to 300 μM) | IC50 (read-out: IC50) | Structure (SMILES)
1 | > 300 µM |  | O=C(O)c1ccccc1Nc1cc(Cl)ccc1C(=O)O [lobenzarit]
2 |  | 20 µM | Cc1c(Cl)cccc1Nc1ccccc1C(=O)O [tolfenamic acid]
